Experimental data reported in patent publication US6387655B1, “Excitatory amino acid receptor protein and related nucleic acid compounds” (Eli Lilly and Company, priority 1995, dated 2002).
Read-outs that look alike come from different tables or passages of the source.

Biological target: T1, human HmGluR3 (Homo sapiens, UniProt Q14832)
T1 construct: expressed in transfected cells; host or cells: RGT (RGT-18) cells, i.e. AV12 cells stably expressing the rat glutamate transporter GLAST
Assay: Inhibition of forskolin-stimulated cAMP synthesis (adenylate cyclase activity) in RGT cells stably transfected with pGTh-HmGluR3
Assay type: cell-based
Procedure: In an especially preferred embodiment of this invention an assay measuring the inhibition of forskolin-stimulated cAMP synthesis was performed. The inhibition of cAMP synthesis is known to positively correlated with the addition of glutamate to cells containing certain types of metabotropic receptors.
Adenylate cyclase activity was determined in initial experiments in transfected mammalian cells, using standard techniques. See. e.g., N. Adham, et al., supra,; R. L. Weinshank, et al., Proceedings of the National Academy of Sciences (USA), 89:3630-3634 (1992), and the references cited therein.
As noted above, mammalian cells (the cell line RGT) were stably transfected with the plasmid pGTh-HmGluR3, containing human HmGluR3 cDNA inserted in the plasmid vector pGTh, as depicted in FIG. 2. The cells were maintained in a medium consisting of Dulbecco's Modified Eagle's Medium (DMEM) containing 5% dialyzed fetal calf serum, 10 mM HEPES buffer (pH 7.3), 1 mM sodium pyruvate, 1 mM glutamine, and 200 μg/ml hygromycin.
For the assay the cells were disassociated from stock culture flasks with trypsin, and planted in 24-well plastic culture dishes (15 mm wells) at a density of 500-700,000 cells per well using the same culture medium. After twenty four hours incubation in a humidified carbon dioxide incubator, the cell monolayers are washed with buffer (Dulbecco's phosphate-buffered saline containing 0.5 mM isobutylmethylxanthine and 3 mM glucose) and then incubated in the same buffer at 37° C. for 30 minutes. The monolayers are then washed four additional times with buffer.
Drugs and forskolin, or forskolin alone, dissolved in buffer, was added after the final wash. After incubating for 20 minutes at 37° C., 0.5 ml of 8 mM EDTA was added to each well. The plates were then placed in a boiling water bath for about four minutes. The supernatant fluids are then recovered from the wells and lyophilized. Cyclic adenosinemonophosphate (cAMP) determinations were carried out on the lyophilized samples using commercially available radioimmunoassay kits, following the manufacturer's instructions. The cAMP level in wells containing drug was compared to the forskolin controls.

[1] = RGT cells expressing HmGluR3, cAMP by radioimmunoassay versus forskolin controls, 20 minutes at 37° C., read-out: EC50 (potencies of selected agonists for HmGluR3 expressed in RGT cells)

T1 sequence (Q14832 23-879): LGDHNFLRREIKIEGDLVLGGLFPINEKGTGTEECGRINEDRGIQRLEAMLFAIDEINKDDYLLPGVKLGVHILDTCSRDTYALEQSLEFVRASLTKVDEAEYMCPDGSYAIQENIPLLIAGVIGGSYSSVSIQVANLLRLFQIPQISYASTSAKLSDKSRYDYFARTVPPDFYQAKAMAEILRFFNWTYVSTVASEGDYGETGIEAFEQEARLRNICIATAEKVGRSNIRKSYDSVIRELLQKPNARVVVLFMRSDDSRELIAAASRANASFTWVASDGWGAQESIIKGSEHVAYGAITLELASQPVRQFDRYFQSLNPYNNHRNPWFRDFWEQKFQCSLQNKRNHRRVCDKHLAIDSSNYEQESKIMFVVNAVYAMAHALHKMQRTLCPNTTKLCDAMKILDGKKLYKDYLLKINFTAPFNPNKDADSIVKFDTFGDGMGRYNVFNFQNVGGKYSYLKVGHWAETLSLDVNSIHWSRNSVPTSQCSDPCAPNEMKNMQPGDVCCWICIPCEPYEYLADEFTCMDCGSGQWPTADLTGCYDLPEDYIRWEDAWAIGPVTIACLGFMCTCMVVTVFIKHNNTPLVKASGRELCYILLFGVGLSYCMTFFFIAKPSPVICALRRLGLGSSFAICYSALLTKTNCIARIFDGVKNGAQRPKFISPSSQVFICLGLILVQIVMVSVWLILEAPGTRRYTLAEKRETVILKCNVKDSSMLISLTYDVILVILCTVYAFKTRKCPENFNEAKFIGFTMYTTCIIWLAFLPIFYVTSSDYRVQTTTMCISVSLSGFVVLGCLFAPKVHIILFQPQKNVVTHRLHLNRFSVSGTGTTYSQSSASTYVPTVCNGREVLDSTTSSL

SMILES | EC50 [µM] | EC50 [1] [µM]
NC1(C(=O)O)CCC(C(=O)O)C1 (stereo not drawn) [1S,3R-1-aminocyclopentant-1,3-dicarboxylic acid] | 2.23 | –
NC1(C(=O)O)CNC(C(=O)O)C1 (stereo not drawn) [2R,4R-4-aminopyrrolidine-2,4-dicarboxylate] | – | 0.55
N[C@H](C(=O)O)C1CC1C(=O)O (stereo partly drawn) [L-2-(carboxycyclopropyl)glycine-I] | – | 0.012
N[C@@H](CCC(=O)O)C(=O)O [L-Glutamate, 1-aminopropane-1,3-dicarboxylic acid] | 5.38 | –
